Laboratory results taken from patent publication US20250230154A1, “COMPOUND HAVING SHP2 PROTEIN DEGRADING ACTIVITY, AND MEDICAL USES THEREOF” (UBIX THERAPEUTICS, INC., priority 2021, published 2025).

Molecular target: T1, SHP2 protein (Homo sapiens, UniProt Q06124)
T1 sequence (Q06124 1-593): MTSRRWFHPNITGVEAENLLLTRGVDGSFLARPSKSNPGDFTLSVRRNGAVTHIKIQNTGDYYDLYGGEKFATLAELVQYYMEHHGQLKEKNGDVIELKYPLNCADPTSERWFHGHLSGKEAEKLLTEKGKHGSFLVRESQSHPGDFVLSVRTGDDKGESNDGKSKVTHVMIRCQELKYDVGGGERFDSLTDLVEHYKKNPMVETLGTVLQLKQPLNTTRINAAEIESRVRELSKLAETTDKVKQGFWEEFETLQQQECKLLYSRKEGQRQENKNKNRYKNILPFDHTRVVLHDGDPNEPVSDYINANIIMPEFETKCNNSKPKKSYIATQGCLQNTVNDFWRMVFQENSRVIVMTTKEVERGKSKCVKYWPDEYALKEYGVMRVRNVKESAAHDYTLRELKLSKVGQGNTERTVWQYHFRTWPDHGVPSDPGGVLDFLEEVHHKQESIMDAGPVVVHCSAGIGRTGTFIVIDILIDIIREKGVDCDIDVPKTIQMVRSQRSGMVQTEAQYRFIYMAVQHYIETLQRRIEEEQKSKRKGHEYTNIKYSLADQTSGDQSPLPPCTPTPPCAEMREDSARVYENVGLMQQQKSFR
Assay: Measurement of SHP2 protein degradation in MV-4-11 cells (western blotting)
Format: cell-based
Design: endogenous in cells; host or cells: MV-4-11
Conditions: MV-4-11 cells, 24 hours
How it was run: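 SHP2 protein levels were assessed by western blotting in MV-4-11 cells after a 24 hour compound treatment. Lysates were sonicated, centrifuged, normalized by BCA assay at 562 nm, run on Bis-tris 4-12% gels, transferred to NC membrane, probed with anti-SHPTP2 (70 kDa) and anti-GAPDH (37 kDa) antibodies, and detected on LI-COR Odyssey.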

Compound | SHP2 degradation (%) 10 nM [%] | SHP2 degradation (%) 100 nM [%] | SHP2 degradation (%) 1000 nM [%]
Cc1ncsc1-c1ccc(CNC(=O)[C@@H]2C[C@@H](O)CN2C(=O)[C@@H](NC(=O)C2(F)CC2)C(C)(C)C)c(OCCN2CCN(C(=O)CC(=O)Nc3cccc(Sc4cnc(N5CCC(C)(CN)CC5)cn4)c3Cl)[C@@H](C)C2)c1 [Example 63, (2S,4R)—N-(2-(2-((S)-4-(3-((3-((5-(4-(aminomethyl)-4-methylpiperidin-1-yl)pyrazin-2-yl)thio)-2-chlorophenyl)amino)-3-oxopropanoyl)-3-methylpiperazin-1-yl)ethoxy)-4-(4-methylthiazol-5-yl)benzyl)-1-((S)-2-(1-fluorocyclopropane-1-carboxamido)-3,3-dimethylbutanoyl)-4-hydroxypyrrolidine-2-carboxamide] | 90.5 | 97 | –
Cc1ncsc1-c1ccc(CNC(=O)[C@@H]2C[C@@H](O)CN2C(=O)[C@@H](NC(=O)C2(F)CC2)C(C)(C)C)c(OCCCN2CCC(CC(=O)Nc3cccc(Sc4cnc(N5CC[C@H](CN)C5)cn4)c3Cl)CC2)c1 [Example 11, (2S,4R)—N-(2-(3-(4-(2-((3-((5-((R)-3-(aminomethyl)pyrrolidin-1-yl)pyrazin-2-yl)thio)-2-chlorophenyl)amino)-2-oxoethyl)piperidin-1-yl)propoxy)-4-(4-methylthiazol-5-yl)benzyl)-1-((S)-2-(1-fluorocyclopropane-1-carboxamido)-3,3-dimethylbutanoyl)-4-hydroxypyrrolidine-2-carboxamide] | −8.9 | 19.2 | 35.9
CC(=O)N[C@H](C(=O)N1C[C@H](O)C[C@H]1C(=O)NCc1ccc(-c2scnc2C)cc1OCC1CCN(C(=O)CC(=O)Nc2cccc(Sc3cnc(N4CCC(C)(CN)CC4)cn3)c2Cl)CC1)C(C)(C)C [Example 33, (2S,4R)-1-((S)-2-acetamido-3,3-dimethylbutanoyl)-N-(2-((1-(3-((3-((5-(4-(aminomethyl)-4-methylpiperidin-1-yl)pyrazin-2-yl)thio)-2-chlorophenyl)amino)-3-oxopropanoyl)piperidin-4-yl)methoxy)-4-(4-methylthiazol-5-yl)benzyl)-4-hydroxypyrrolidine-2-carboxamide] | 90 | 96.5 | –
COC(=O)[C@H]1CN(C(=O)CC(=O)Nc2cccc(Sc3cnc(N4CCC(C)(CN)CC4)cn3)c2Cl)CCN1CCOc1cc(-c2scnc2C)ccc1CNC(=O)[C@@H]1C[C@@H](O)CN1C(=O)[C@@H](NC(=O)C1(F)CC1)C(C)(C)C [Example 67, Methyl (R)-4-(3-((3-((5-(4-(aminomethyl)-4-methylpiperidin-1-yl)pyrazin-2-yl)thio)-2-chlorophenyl)amino)-3-oxopropanoyl)-1-(2-(2-(((2S,4R)-1-((S)-2-(1-fluorocyclopropane-1-carboxamido)-3,3-dimethylbutanoyl)-4-hydroxypyrrolidine-2-carboxamido)methyl)-5-(4-methylthiazol-5-yl)phenoxy)ethyl)piperazine-2-carboxylate] | 68.3 | 98.1 | –
Cc1ncsc1-c1ccc(CNC(=O)[C@@H]2C[C@@H](O)CN2C(=O)[C@@H](NC(=O)C2(F)CC2)C(C)(C)C)c(OCCN2CCN(C(=O)CC(=O)Nc3cccc(Sc4cnc(N5CCC(C)(CN)CC5)cn4)c3Cl)C[C@H]2C(=O)O)c1 [Example 69, (S)-4-(3-((3-((5-(4-(aminomethyl)-4-methylpiperidin-1-yl)pyrazin-2-yl)thio)-2-chlorophenyl)amino)-3-oxopropanoyl)-1-(2-(2-(((2S,4R)-1-((S)-2-(1-fluorocyclopropane-1-carboxamido)-3,3-dimethylbutanoyl)-4-hydroxypyrrolidine-2-carboxamido)methyl)-5-(4-methylthiazol-5-yl)phenoxy)ethyl)piperazine-2-carboxylic Acid] | 20 | 81.9 | –
Cc1ncsc1-c1ccc(CNC(=O)[C@@H]2C[C@@H](O)CN2C(=O)[C@@H](NC(=O)C2(F)CC2)C(C)(C)C)c(OCCCN2CCN(C(=O)CC(=O)Nc3cccc(Sc4cnc(N5CCC(C)(CN)CC5)cn4)c3Cl)[C@@H](C)C2)c1 [Example 64, (2S,4R)—N-(2-(3-((S)-4-(3-((3-((5-(4-(aminomethyl)-4-methylpiperidin-1-yl)pyrazin-2-yl)thio)-2-chlorophenyl)amino)-3-oxopropanoyl)-3-methylpiperazin-1-yl)propoxy)-4-(4-methylthiazol-5-yl)benzyl)-1-((S)-2-(1-fluorocyclopropane-1-carboxamido)-3,3-dimethylbutanoyl)-4-hydroxypyrrolidine-2-carboxamide] | 45.9 | 96.6 | –
COC(=O)[C@@H]1CN(C(=O)CC(=O)Nc2cccc(Sc3cnc(N4CCC(C)(CN)CC4)cn3)c2Cl)CCN1CCOc1cc(-c2scnc2C)ccc1CNC(=O)[C@@H]1C[C@@H](O)CN1C(=O)[C@@H](NC(=O)C1(F)CC1)C(C)(C)C [Example 66, (S)-methyl 4-(3-((3-((5-(4-(aminomethyl)-4-methylpiperidin-1-yl)pyrazin-2-yl)thio)-2-chlorophenyl)amino)-3-oxopropanoyl)-1-(2-(2-(((2S,4R)-1-((S)-2-(1-fluorocyclopropane-1-carboxamido)-3,3-dimethylbutanoyl)-4-hydroxypyrrolidine-2-carboxamido)methyl)-5-(4-methylthiazol-5-yl)phenoxy)ethyl)piperazine-2-carboxylate] | 79 | 98.1 | –
Cc1ncsc1-c1ccc(CNC(=O)[C@@H]2C[C@@H](O)CN2C(=O)[C@@H](NC(=O)C2(F)CC2)C(C)(C)C)c(OCCN2CCN(c3ccc(C(=O)Nc4cccc(Sc5cnc(N6CCC(C)(CN)CC6)cn5)c4Cl)nn3)CC2)c1 [Example 85, N-(3-((5-(4-(aminomethyl)-4-methylpiperidin-1-yl)pyrazin-2-yl)thio)-2-chlorophenyl)-6-(4-(2-(2-(((2S,4R)-1-((S)-2-(1-fluorocyclopropane-1-carboxamido)-3,3-dimethylbutanoyl)-4-hydroxypyrrolidine-2-carboxamido)methyl)-5-(4-methylthiazol-5-yl)phenoxy)ethyl)piperazin-1-yl)pyridazine-3-carboxamide] | 73 | 97.5 | –
Cc1ncsc1-c1ccc(CNC(=O)[C@@H]2C[C@@H](O)CN2C(=O)[C@@H](NC(=O)C2(F)CC2)C(C)(C)C)c(OCCC2CCN(C(=O)CC(=O)Nc3cccc(Sc4cnc(N5CCC(C)(N)CC5)cn4)c3Cl)CC2)c1 [Example 34, (2S,4R)—N-(2-(2-(1-(3-((3-((5-(4-amino-4-methylpiperidin-1-yl)pyrazin-2-yl)thio)-2-chlorophenyl)amino)-3-oxopropanoyl)piperidin-4-yl)ethoxy)-4-(4-methylthiazol-5-yl)benzyl)-1-((S)-2-(1-fluorocyclopropane-1-carboxamido)-3,3-dimethylbutanoyl)-4-hydroxypyrrolidine-2-carboxamide] | 77 | 93.5 | 94
Cc1ncsc1-c1ccc(CNC(=O)[C@@H]2C[C@@H](O)CN2C(=O)[C@@H](NC(=O)C2(F)CC2)C(C)(C)C)c(OCCCN2CCN(CC(=O)Nc3cccc(Sc4cnc(N5CCC(C)(CN)CC5)cn4)c3Cl)CC2)c1 [Example 73, (2S,4R)—N-(2-(3-(4-(2-((3-((5-(4-(aminomethyl)-4-methylpiperidin-1-yl)pyrazin-2-yl)thio)-2-chlorophenyl)amino)-2-oxoethyl)piperazin-1-yl)propoxy)-4-(4-methylthiazol-5-yl)benzyl)-1-((S)-2-(1-fluorocyclopropane-1-carboxamido)-3,3-dimethylbutanoyl)-4-hydroxypyrrolidine-2-carboxamide] | 8.2 | 81.2 | –
Cc1ncsc1-c1ccc(CNC(=O)[C@@H]2C[C@@H](O)CN2C(=O)[C@@H](NC(=O)C2(F)CC2)C(C)(C)C)c(OCCCN2CCC(O)(CC(=O)Nc3cccc(Sc4cnc(N5CCC(C)(CN)CC5)cn4)c3Cl)CC2)c1 [Example 20] | 54.9 | 99.0 | –
Cc1ncsc1-c1ccc(CNC(=O)[C@@H]2C[C@@H](O)CN2C(=O)[C@@H](NC(=O)C2(F)CC2)C(C)(C)C)c(OCCCC2CCN(CCC(=O)Nc3cccc(Sc4cnc(N5CCC(C)(CN)CC5)cn4)c3Cl)CC2)c1 [Example 75, (2S,4R)—N-(2-(3-(1-(3-((3-((5-(4-(aminomethyl)-4-methylpiperidin-1-yl)pyrazin-2-yl)thio)-2-chlorophenyl)amino)-3-oxopropyl)piperidin-4-yl)propoxy)-4-(4-methylthiazol-5-yl)benzyl)-1-((S)-2-(1-fluorocyclopropane-1-carboxamido)-3,3-dimethylbutanoyl)-4-hydroxypyrrolidine-2-carboxamide] | 19.5 | 75.5 | 93.5
